According to EP3382005A2, “EX VIVO MODEL FOR NEURODEGENERATIVE DISEASES” (Neuro-Bio Ltd, priority 2017, dated 2018):
Square brackets hold non-standard residues; d marks the D form. Peptide text beside a SMILES is read from it. Phe(4-COOH) = N[C@@H](Cc1ccc(C(=O)O)cc1)C(=O)O; 2Nal = N[C@@H](Cc1ccc2ccccc2c1)C(=O)O; cisHyp = O=C(O)[C@@H]1C[C@H](O)CN1

What was measured:
[1] = target: T1, alpha7 nicotinic receptor (Rattus norvegicus, UniProt Q05941); experiment: Calcium influx test in PC12 cells; type: cell-based; conditions: compound alone, higher doses 1 µM to 10 µM
T1 construct: endogenous in cells; host or cells: PC12 cells

PC12 cells = experiment: Cell viability test

T1 sequence (Q05941 23-502): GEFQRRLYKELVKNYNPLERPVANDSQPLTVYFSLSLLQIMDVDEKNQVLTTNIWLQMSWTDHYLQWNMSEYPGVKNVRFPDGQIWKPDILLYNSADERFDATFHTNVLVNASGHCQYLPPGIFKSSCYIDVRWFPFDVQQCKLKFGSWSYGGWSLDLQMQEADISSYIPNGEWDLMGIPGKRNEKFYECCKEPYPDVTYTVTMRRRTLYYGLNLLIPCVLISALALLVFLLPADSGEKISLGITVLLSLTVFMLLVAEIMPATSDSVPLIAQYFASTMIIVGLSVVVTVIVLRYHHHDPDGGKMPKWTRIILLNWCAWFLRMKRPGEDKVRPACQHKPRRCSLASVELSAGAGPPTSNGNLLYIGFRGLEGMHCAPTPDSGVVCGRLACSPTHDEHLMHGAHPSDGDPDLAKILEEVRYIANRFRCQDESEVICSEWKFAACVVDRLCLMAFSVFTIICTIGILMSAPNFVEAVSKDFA

## CC(=O)N[C@@H](Cc1ccc2ccccc2c1)C(=O)N[C@@H](Cc1ccc(C(=O)O)cc1)C(=O)N1C[C@@H](O)C[C@H]1C(N)=O [Tri01, 4-((S)-2-((S)-2-acetamido-3-(naphthalen-2-yl)propanamido)-3-((2S,4S)-2-carbamoyl-4-hydroxypyrrolidin-1-yl)-3-oxopropyl)benzoate] (Ac-[2Nal]-[Phe(4-COOH)]-[cisHyp]-NH2)
[1]
  calcium influx by the specific alpha7 agonist PNU282987: inactive
PC12 cells; compound alone, 0.1µM to 10µM
  PC12 cell viability: toxic in a concentration-dependent manner
PC12 cells; in the presence of T30 1µM
  PC12 cell viability: potentiates the toxicity induced by T30
